From patent US20260356856A1, “KRAS G12S AND G12C INHIBITORS” (MIRATI THERAPEUTICS, INC., priority 2023, published 2026)

Legend:
[1] = target: T1, KRas-mediated phosphorylation of ERK in A549 cells (Homo sapiens, UniProt P01116, G12S); assay: Inhibition of KRas-mediated phosphorylation of ERK (HTRF), A549 cells; assay type: cell-based; conditions: HTRF pERK, 3 h incubation
T1 construct: pERK HTRF read-out

[2] = target: T2, KRas-mediated phosphorylation of ERK in MKN1 cells (Homo sapiens, UniProt P01116); assay: Inhibition of KRas-mediated phosphorylation of ERK (HTRF), MKN1 cells; assay type: cell-based; conditions: MKN1 cells (KRas WT); HTRF pERK; 3 h incubation
T2 construct: pERK HTRF read-out
Experimental: Inhibition of KRas Phosphorylation of ERK (HTRF) by Exemplary Compounds of Formula (Ia) or (Ib)
Cisbio HTRF Advanced pERK Assay Catalog #64AERPEH • Cells: MKN1, PSN1 • Procedure: • 1. Day 1: Seed 6,000 cells/well −25 μl/well in 384-well white solid bottom plate; RPM1_10% FBS. Incubate overnight at 37 °C/5% CO2. • 2.

KRas G12C = target: T3, KRas G12C (Homo sapiens, UniProt P01116, G12C); assay: KRas binding assay, TR-FRET displacement of Cy5 labelled tracer; conditions: 60-minute incubation at room temperature, 1% DMSO, pH 7.5
T3 construct: Biotinylated KRas (corresponding to amino acids 1-169, produced at Accelegan Inc.); biotin (biotinylated); purchased Accelegan Inc
Experimental: (§1) This Example illustrates that exemplary compounds of the present invention bind to KRas and are capable of displacing a labeled tracer ligand occupying the KRas binding site. KRas^WT, KRas^G12A, KRas^G12C, KRas^G12D, KRas^G12R, KRas^G12S, KRas^G12V, KRas^G13D, or KRas^Q61H was used in the assay.
(§2) The ability of a compound to bind to KRas was measured using a TR-FRET displacement assay. Biotinylated KRas (corresponding to amino acids 1-169, produced at Accelegan Inc.) was incubated with custom made Cy5 labelled tracer, terbium streptavidin (Cisbio Inc.) and compound (1% DMSO final) in buffer (50 mM HEPES, pH 7.5, 5 mM MgCl2, 0.005% Tween-20 and 1 mM DTT). After a 60-minute incubation at room temperature, the reaction was measured using a BMG LABTECH CLARIO star Plus via TR-FRET. […] The POC values were fit to a 4-parameter IC50 equation and the IC50 value reported.

KRas G12S = target: T4, KRas G12S (Homo sapiens, UniProt P01116, G12S); assay: as above; conditions: 60-minute incubation at room temperature, 1% DMSO, pH 7.5
T4 construct: Biotinylated KRas (corresponding to amino acids 1-169, produced at Accelegan Inc.); biotin (biotinylated); purchased Accelegan Inc
Experimental: as §1, §2

KRas WT = target: T5, KRas WT (Homo sapiens, UniProt P01116); assay: as above; conditions: 60-minute incubation at room temperature, 1% DMSO, pH 7.5
T5 construct: Biotinylated KRas (corresponding to amino acids 1-169, produced at Accelegan Inc.); biotin (biotinylated); purchased Accelegan Inc
Experimental: as §1, §2

T5 sequence (P01116 1-169 isoform P01116-2): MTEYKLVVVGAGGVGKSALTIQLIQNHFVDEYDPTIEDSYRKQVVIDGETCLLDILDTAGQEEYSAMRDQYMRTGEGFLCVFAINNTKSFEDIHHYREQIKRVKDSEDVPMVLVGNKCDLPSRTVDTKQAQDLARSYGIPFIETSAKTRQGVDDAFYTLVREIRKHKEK
T1 sequence (P01116 1-188 isoform P01116-2 G12S): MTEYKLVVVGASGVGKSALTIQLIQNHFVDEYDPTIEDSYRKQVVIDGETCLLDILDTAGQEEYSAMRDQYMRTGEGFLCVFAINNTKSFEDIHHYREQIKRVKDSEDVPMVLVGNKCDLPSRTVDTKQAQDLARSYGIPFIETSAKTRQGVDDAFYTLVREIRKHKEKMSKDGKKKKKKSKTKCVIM
T2 sequence (P01116 1-188 isoform P01116-2): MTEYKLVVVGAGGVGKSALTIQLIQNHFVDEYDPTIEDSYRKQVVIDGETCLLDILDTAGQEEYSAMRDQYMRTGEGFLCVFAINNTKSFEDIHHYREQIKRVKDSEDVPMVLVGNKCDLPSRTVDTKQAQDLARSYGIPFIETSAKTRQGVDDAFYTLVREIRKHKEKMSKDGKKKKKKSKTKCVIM
T3 sequence (P01116 1-169 isoform P01116-2 G12C): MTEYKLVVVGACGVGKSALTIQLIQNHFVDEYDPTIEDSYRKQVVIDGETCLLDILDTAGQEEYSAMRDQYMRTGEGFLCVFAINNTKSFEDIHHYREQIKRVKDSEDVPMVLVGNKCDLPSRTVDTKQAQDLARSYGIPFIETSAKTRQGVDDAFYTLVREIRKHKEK
T4 sequence (P01116 1-169 isoform P01116-2 G12S): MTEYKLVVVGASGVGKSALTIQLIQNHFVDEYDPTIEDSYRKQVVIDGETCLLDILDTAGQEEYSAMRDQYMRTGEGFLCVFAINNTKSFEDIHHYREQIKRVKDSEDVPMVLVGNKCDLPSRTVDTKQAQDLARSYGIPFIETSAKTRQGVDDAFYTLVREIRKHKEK

Row | SMILES | IC50 [1] [nM] | IC50 [2] [nM] | IC50 (KRas G12C) [nM] | IC50 (KRas G12S) [nM] | IC50 (KRas WT) [nM]
1 | Cc1ccn(C(=O)[C@H]2CCCN(c3nc(OC[C@@]45CCCN4C[C@H](F)C5)nc4c(F)c(-c5ccc(F)c6sc(N)c(C#N)c56)c(Cl)cc34)CC2)n1 (atropisomer, axis not shown; (aS)) [Example 169, 2-amino-4-((R)-6-chloro-8-fluoro-2-(((2R,7aS)-2-fluorotetrahydro-1H-pyrrolizin-7a(5H)-yl)methoxy)-4-((S)-4-(3-methyl-1H-pyrazole-1-carbonyl)azepan-1-yl)quinazolin-7-yl)-7-fluorobenzo [b]thiophene-3-carbonitrile] | 534 | 9480 | – | – | –
2 | Cc1ccn(C(=O)[C@@H]2CCCN(c3nc(OC[C@@]45CCCN4C[C@H](F)C5)nc4c(F)c(-c5ccc(F)c6sc(N)c(C#N)c56)c(Cl)cc34)CC2)n1 (atropisomer, axis not shown; (aS)) [Example 171, 2-amino-4-((R)-6-chloro-8-fluoro-2-(((2R,7aS)-2-fluorotetrahydro-1H-pyrrolizin-7a(5H)-yl)methoxy)-4-((R)-4-(3-methyl-1H-pyrazole-1-carbonyl)azepan-1-yl)quinazolin-7-yl)-7-fluorobenzo[b]thiophene-3-carbonitrile] | 6440 | 3040 | – | – | –
3 | CCc1c(F)ccc2cc(O)cc(-c3ncc4c(N5CC[C@H]6[C@@H](C5)[C@H]6C(=O)n5ccc(C)n5)nc(OC[C@@]56CCCN5C[C@H](F)C6)nc4c3F)c12 (stereo in doubt) [Example 99, (cis-3-(7-(8-ethyl-7-fluoro-3-hydroxynaphthalen-1-yl)-8-fluoro-2-(((2R,7aS)-2-fluorotetrahydro-1H-pyrrolizin-7a(5H)-yl)methoxy)pyrido[4,3-d]pyrimidin-4-yl)-3-azabicyclo[4.1.0]heptan-7-yl)(3-methyl-1H-pyrazol-1-yl)methanone] | 54 | 1050 | 58 | 26 | –
4 | O=C(Oc1ccc(C(F)(F)F)cc1)C1CCN(c2nc(OCC34CCCN3CCC4)nc3c(F)c(-c4cccc5cccc(F)c45)ncc23)CC1 [Example 42, 4-(trifluoromethyl)phenyl 1-(8-fluoro-7-(8-fluoronaphthalen-1-yl)-2-((tetrahydro-1H-pyrrolizin-7a(5H)-yl)methoxy)pyrido[4,3-d]pyrimidin-4-yl)piperidine-4-carboxylate] | – | – | 768 | 68100 | > 100000
5 | O=C(Oc1ccc(F)c(F)c1)C1CCN(c2nc(OCC34CCCN3CCC4)nc3c(F)c(-c4cccc5cccc(F)c45)ncc23)CC1 [Example 43, 3,4-difluorophenyl 1-(8-fluoro-7-(8-fluoronaphthalen-1-yl)-2-((tetrahydro-1H-pyrrolizin-7a(5H)-yl)methoxy)pyrido[4,3-d]pyrimidin-4-yl)piperidine-4-carboxylate] | – | – | 424 | 42100 | > 100000
6 | O=C(Oc1ccccc1)C1CCN(c2nc(OCC34CCCN3CCC4)nc3c(F)c(-c4cccc5cccc(F)c45)ncc23)CC1 [Example 44, phenyl 1-(8-fluoro-7-(8-fluoronaphthalen-1-yl)-2-((tetrahydro-1H-pyrrolizin-7a(5H)-yl)methoxy)pyrido[4,3-d]pyrimidin-4-yl)piperidine-4-carboxylate] | – | – | 1770 | 81100 | > 100000
7 | COC(=O)[C@H]1CCN(c2nc(OCC34CCCN3CCC4)nc3c(F)c(-c4cccc5cccc(F)c45)ncc23)C[C@@H]1O [Example 45, methyl (3R,4S)-1-(8-fluoro-7-(8-fluoronaphthalen-1-yl)-2-((tetrahydro-1H-pyrrolizin-7a(5H)-yl)methoxy)pyrido[4,3-d]pyrimidin-4-yl)-3-hydroxypiperidine-4-carboxylate] | – | – | > 100000 | > 100000 | 65700
8 | COC(=O)[C@H]1CCN(c2nc(OCC34CCCN3CCC4)nc3c(F)c(-c4cccc5cccc(F)c45)ncc23)C[C@H]1O [Example 46, methyl (3S,4S)-1-(8-fluoro-7-(8-fluoronaphthalen-1-yl)-2-((tetrahydro-1H-pyrrolizin-7a(5H)-yl)methoxy)pyrido[4,3-d]pyrimidin-4-yl)-3-hydroxypiperidine-4-carboxylate] | – | – | > 100000 | > 100000 | > 100000
9 | COC(=O)[C@@H]1CCN(c2nc(OCC34CCCN3CCC4)nc3c(F)c(-c4cccc5cccc(F)c45)ncc23)C[C@@H]1O [Example 47, methyl (3R,4R)-1-(8-fluoro-7-(8-fluoronaphthalen-1-yl)-2-((tetrahydro-1H-pyrrolizin-7a(5H)-yl)methoxy)pyrido[4,3-d]pyrimidin-4-yl)-3-hydroxypiperidine-4-carboxylate] | – | – | > 100000 | > 100000 | > 100000
10 | O=C(Oc1ccccc1)C1CCCN(c2nc(OCC34CCCN3CCC4)nc3c(F)c(-c4cccc5cccc(F)c45)ncc23)C1 (centres unmarked) [Example 51, phenyl 1-(8-fluoro-7-(8-fluoronaphthalen-1-yl)-2-((tetrahydro-1H-pyrrolizin-7a(5H)-yl)methoxy)pyrido[4,3-d]pyrimidin-4-yl)piperidine-3-carboxylate] | – | – | 30300 | 56500 | 25400
11 | O=C(Oc1ccccc1F)C1CCCN(c2nc(OCC34CCCN3CCC4)nc3c(F)c(-c4cccc5cccc(F)c45)ncc23)C1 (centres unmarked) [Example 52, 2-fluorophenyl 1-(8-fluoro-7-(8-fluoronaphthalen-1-yl)-2-((tetrahydro-1H-pyrrolizin-7a(5H)-yl)methoxy)pyrido[4,3-d]pyrimidin-4-yl)piperidine-3-carboxylate] | – | – | 6810 | 27100 | 20200
12 | CCc1c(F)ccc2cc(O)cc(-c3ncc4c(N5C[C@@H](C)N(C(=O)n6ccc(C)n6)[C@H](C)C5)nc(OC[C@@]56CCCN5C[C@H](F)C6)nc4c3F)c12 [Example 86, ((2R,6R)-4-(7-(8-ethyl-7-fluoro-3-hydroxynaphthalen-1-yl)-8-fluoro-2-(((2R,7aS)-2-fluorotetrahydro-1H-pyrrolizin-7a(5H)-yl)methoxy)pyrido[4,3-d]pyrimidin-4-yl)-2,6-dimethylpiperazin-1-yl)(3-methyl-1H-pyrazol-1-yl)methanone] | 8960 | 4230 | 3450 | 2200 | 2320
13 | CCc1c(F)ccc2cc(O)cc(-c3ncc4c(N5CC6(C(=O)n7ccc(C)n7)CCCC5C6)nc(OC[C@@]56CCCN5C[C@H](F)C6)nc4c3F)c12 (stereo partly drawn) [Example 87, (6-(7-(8-ethyl-7-fluoro-3-hydroxynaphthalen-1-yl)-8-fluoro-2-(((2R,7aS)-2-fluorotetrahydro-1H-pyrrolizin-7a(5H)-yl)methoxy)pyrido[4,3-d]pyrimidin-4-yl)-6-azabicyclo[3.2.1]octan-1-yl)(3-methyl-1H-pyrazol-1-yl)methanone] | > 10000 | 4060 | 365 | 1680 | 1580
14 | CCc1c(F)ccc2cc(O)cc(-c3ncc4c(N5CCN(C(=O)n6ccc(C)n6)C(C(F)F)C5)nc(OC[C@@]56CCCN5C[C@H](F)C6)nc4c3F)c12 (stereo partly drawn) [Example 125, (2-(difluoromethyl)-4-(7-(8-ethyl-7-fluoro-3-hydroxynaphthalen-1-yl)-8-fluoro-2-(((2R,7aS)-2-fluorotetrahydro-1H-pyrrolizin-7a(5H)-yl)methoxy)pyrido[4,3-d]pyrimidin-4-yl)piperazin-1-yl)(3-methyl-1H-pyrazol-1-yl)methanone] | 6810 | – | 96 | 168 | 84
15 | CCc1c(F)ccc2cc(O)cc(-c3ncc4c(N5CCN(C(=O)n6ccc(C)n6)C(CC#N)C5)nc(OC[C@@]56CCCN5C[C@H](F)C6)nc4c3F)c12 (stereo partly drawn) [Example 126, 2-(4-(7-(8-ethyl-7-fluoro-3-hydroxynaphthalen-1-yl)-8-fluoro-2-(((2R,7aS)-2-fluorotetrahydro-1H-pyrrolizin-7a(5H)-yl)methoxy)pyrido[4,3-d]pyrimidin-4-yl)-1-(3-methyl-1H-pyrazole-1-carbonyl)piperazin-2-yl) acetonitrile] | 9800 | – | 84 | 88 | 8
16 | CCc1c(F)ccc2cc(O)cc(-c3ncc4c(N(C)CCCC(=O)NC(C)=O)nc(OC[C@@]56CCCN5C[C@H](F)C6)nc4c3F)c12 [Example 325, N-acetyl-4-((7-(8-ethyl-7-fluoro-3-hydroxynaphthalen-1-yl)-8-fluoro-2-(((2R,7aS)-2-fluorotetrahydro-1H-pyrrolizin-7a(5H)-yl)methoxy)pyrido[4,3-d]pyrimidin-4-yl)(methyl)amino)butanamide] | – | – | 12 | 14 | 23
